Source: US8389554B2, “Imidazothiadiazole derivatives” (Merck Patent Gesellschaft mit Beschränkter Haftung, priority 2008, dated 2013)

Target: T1, GST-ALK5 (Homo sapiens, UniProt P36897)
T1 sequence (P36897 34-503): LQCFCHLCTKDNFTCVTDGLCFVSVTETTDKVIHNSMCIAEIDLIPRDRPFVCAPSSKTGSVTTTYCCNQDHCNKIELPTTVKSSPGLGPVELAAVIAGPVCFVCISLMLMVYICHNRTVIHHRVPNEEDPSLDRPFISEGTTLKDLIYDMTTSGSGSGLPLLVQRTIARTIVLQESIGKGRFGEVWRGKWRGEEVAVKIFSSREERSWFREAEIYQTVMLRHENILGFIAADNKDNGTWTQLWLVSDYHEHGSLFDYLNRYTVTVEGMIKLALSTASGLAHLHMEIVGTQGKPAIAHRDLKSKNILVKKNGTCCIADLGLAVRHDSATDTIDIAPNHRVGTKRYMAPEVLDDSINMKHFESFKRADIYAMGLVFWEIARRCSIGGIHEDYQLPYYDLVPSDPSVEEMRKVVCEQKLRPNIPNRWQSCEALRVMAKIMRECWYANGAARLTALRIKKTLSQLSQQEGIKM
Test: In-vitro (enzyme) flashplate kinase assay, inhibition of TGF-beta receptor I kinase
Type: biochemical
Details: 384-well flashplate, GST-ALK5, GST-SMAD2 substrate, 3 mM ATP, 30° C., 45 min
Procedure: In-Vitro (Enzyme) Assay for Determination of the Efficacy of Inhibitors of the Inhibition of TGF-Beta-Mediated Effects
The kinase assay was carried out as 384-well flashplate assay. 31.2 nM of GST-ALK5, 439 nM of GST-SMAD2 and 3 mM of ATP (with 0.3 μCi of ^33P-ATP/well) were incubated in a total volume of 35 μl (20 mM of HEPES, 10 mM of MgCl2, 5 mM of MnCl2, 1 mM of DTT, 0.1% of BSA, pH 7.4) without or with test substance (5-10 concentrations) at 30° C. for 45 min. The reaction was stopped using 25 μl of 200 mM EDTA solution, filtered with suction at room temperature after 30 min, and the wells were washed with 3 times 100 μl of 0.9% NaCl solution. Radioactivity was measured in the TopCount. The IC50 values were calculated using RS1 (Table 1). Above and below, all temperatures were indicated in ° C.

`COc1cc(-c2cnc3sc(NCCc4ccccn4)nn23)cc(OC)c1OC` [No 20, (2-Pyridin-2-yl-ethyl)-[5-(3,4,5-trimethoxy-phenyl)-imidazo[2,1-b][1,3,4]thiadiazol-2-yl]-amine] was tested. Which IC50 did it give?
The IC50 was 270 nM.

With `Cc1cc(-c2cnc3sc(NCc4ccco4)nn23)cc(C)c1O` [No 38, 4-{2-[(Furan-2-ylmethyl)-amino]-imidazo[2,1-b][1,3,4]thiadiazol-5-yl}-2,6-dimethyl-phenol] as the molecule, how does the IC50 read?
Its IC50 is 240 nM.

For `CC(=O)c1cccc(-c2cnc3sc(NCCN4CCOCC4)nn23)c1` [No 158, 1-{3-[2-(2-Morpholin-4-yl-ethylamino)-imidazo[2,1-b][1,3,4]thiadiazol-5-yl]-phenyl}-ethanone], which IC50 is on record?
Its IC50 is 780 nM.

For `COc1cc(-c2cnc3sc(NCc4cccs4)nn23)cc(OC)c1OC` [No 165, Thiophen-2-ylmethyl-[5-(3,4,5-trimethoxy-phenyl)-imidazo[2,1-b][1,3,4]thiadiazol-2-yl]-amine], which IC50 is on record?
Its IC50 is 330 nM.

How did the IC50 turn out when `COc1cc(-c2cnc3sc(NCC(C)C)nn23)cc(OC)c1OC` [No 266, Isobutyl-[5-(3,4,5-trimethoxy-phenyl)-imidazo[2,1-b][1,3,4]thiadiazol-2-yl]-amine] was run?
The IC50 was 820 nM.

Which IC50 does the source give for `COc1cc(-c2cnc3sc(NCC4CCOCC4)nn23)cc(OC)c1OC` [No 274, (Tetrahydro-pyran-4-ylmethyl)-[5-(3,4,5-trimethoxy-phenyl)-imidazo[2,1-b][1,3,4]thiadiazol-2-yl]-amine] here?
The IC50 was 810 nM.

With `COc1cc(-c2cnc3sc(NCCOc4ccccc4)nn23)cc(OC)c1OC` [No 277, (2-Phenoxy-ethyl)-[5-(3,4,5-trimethoxy-phenyl)-imidazo[2,1-b][1,3,4]thiadiazol-2-yl]-amine] as the molecule, how does the IC50 read?
Its IC50 is 780 nM.

How did the IC50 turn out when `COc1cc(-c2cnc3sc(NCc4cccs4)nn23)ccc1O` [No 307, 2-Methoxy-4-{2-[(thiophen-2-ylmethyl)-amino]-imidazo[2,1-b][1,3,4]thiadiazol-5-yl}-phenol] was run?
Its IC50 is 740 nM.

For `CC(=O)c1cccc(-c2cnc3sc(NCCc4ccncc4)nn23)c1` [No 360], which IC50 is on record?
The IC50 was 700 nM.

How did the IC50 turn out when `COc1cc(-c2cnc3sc(NC4CCC(O)CC4)nn23)cc(OC)c1OC` (stereo not shown) [No 363, 4-[5-(3,4,5-Trimethoxy-phenyl)-imidazo[2,1-b][1,3,4]thiadiazol-2-ylamino]-cyclohexanol] was run?
Its IC50 is 570 nM.

`COc1cc(-c2cnc3sc(NCc4cccnc4)nn23)cc(OC)c1OC` [No 416, Pyridin-3-ylmethyl-[5-(3,4,5-trimethoxy-phenyl)-imidazo[2,1-b][1,3,4]thiadiazol-2-yl]-amine] was tested. Which IC50 did it give?
Its IC50 is 670 nM.

For `COc1cc(-c2cnc3sc(NCCc4ccncc4)nn23)cc(OC)c1OC` [No 442, (2-Pyridin-4-yl-ethyl)-[5-(3,4,5-trimethoxy-phenyl)-imidazo[2,1-b][1,3,4]thiadiazol-2-yl]-amine], which IC50 is on record?
The IC50 was 480 nM.

For `COc1cc(-c2cnc3sc(NCCCO)nn23)cc(OC)c1OC` [No 456, 3-[5-(3,4,5-Trimethoxy-phenyl)-imidazo[2,1-b][1,3,4]thiadiazol-2 - ylamino]-propan-1-ol], which IC50 is on record?
The IC50 was 740 nM.

`COc1cc(-c2cnc3sc(NCCc4ccc(S(N)(=O)=O)cc4)nn23)cc(OC)c1OC` [No 464, 4-{2-[5-(3,4,5-Trimethoxy-phenyl)-imidazo[2,1-b][1,3,4]thiadiazol-2-ylamino]-ethyl}-benzenesulfonamide] was tested. Which IC50 did it give?
Its IC50 is 160 nM.

With `CC(=O)c1cccc(-c2cnc3sc(NCCc4ccc(S(N)(=O)=O)cc4)nn23)c1` [No 490, 4-{2-[5-(3-Acetyl-phenyl)-imidazo[2,1-b][1,3,4]thiadiazol-2-ylamino]-ethyl}-benzenesulfonamide] as the molecule, how does the IC50 read?
The IC50 was 360 nM.

Which IC50 does the source give for `COc1cc(-c2cnc3sc(NCCN4CCOCC4)nn23)cc(OC)c1OC` [No 495, (2-Morpholin-4-yl-ethyl)-[5-(3,4,5-trimethoxy-phenyl)-imidazo[2,1-b][1,3,4]thiadiazol-2-yl]-amine] here?
The IC50 was 490 nM.
